Where two headings read alike, the source gives them in different places.
How the values were obtained:
[1] = system: intracellular L.donovani amastigotes, GE1, in macrophages; experiment: Antileishmanial activity against intracellular amastigotes, GE1; type: cell-based
Description: (§1) The intracellular antileishmanial activity was evaluated based on the reduction in the amastigote numbers in the infected macrophages after the treatment. The method was adapted from our previous work. Briefly, 4x10^6 amastigotes in 500 μL of RPMI-1640 suspension were added to each well containing macrophages with the macrophage: parasite ratio of 1:10. The plates were incubated for 4 h at 37°C in 5% CO2. After the parasite internalization period, cells were washed at least twice with fresh media to remove non-phagocytosed parasites. Then, the drug specimen suspended in 1 mL RPMI-1640 was added, and the samples were incubated for 72 h at 37°C in 5% CO2. The medium was aspirated, the coverslips were removed, and then fixed with methanol and air-dried. After staining with Giemsa, 100 cells on the glass discs were counted. Three independent experiments in quadruplicate for each concentration were performed.
(§2) Microscopic examinations were performed in duplicates with various concentrations of pure drugs or buparvaquone-loaded nanoparticles and also for control wells. The amastigotes cells were counted for all cases using a hemocytometer. The mean of the control wells was considered as 100% survival. The counts in the treated wells at various concentrations were converted into percentages. Giemsa-stained slides of the macrophages infected with amastigotes were observed under a light microscope. Then the numbers of amastigotes and infected macrophages per 100 cells were counted for each slide. The percentage (%) of inhibition was calculated by using the equation %ofinhibition=C−T/C×100, (2) where C is the number of amastigotes/infected macrophages per 100 cells in the control well and T is the number of amastigotes/infected macrophages per 100 cells in the drug-treated well.
(§3) Origin version 6.1 software was used to calculate IC50 and CC50 values by plotting a graph of the percentage of inhibition at various concentrations of all the observations.

[2] = system: axenic L.donovani amastigotes, GE1 (isolated strain resistant to SSG); experiment: Antileishmanial activity against axenic amastigotes, GE1; type: cell-based
Description: L. donovani AG83 (MHOM/IN/83/AG83) and GE1 (MHOM/IN/80/GE1F8R) promastigotes were routinely grown in medium 199 supplemented with 10% heat-inactivated fetal bovine serum, 2 mM L-glutamine, 20 mM HEPES, 100 U/mL penicillin, and 100 μg/mL streptomycin at 25°C. L. donovani amastigote forms were grown and maintained as described previously. Axenic amastigote forms were derived from promastigote forms by culturing them in MMA/20 (medium for axenic amastigote) at pH 5.5 [22]. Axenically grown amastigotes were maintained by sub-culture of 10^5 parasites/ml repeated every fifth day under experimental conditions of 37°C temperature and 5% CO2 environment.
The antileishmanial activity of the drug specimens (BPQ+NP, BPQ, SSG, AmB, PMM, and MF) against the axenic amastigotes were evaluated based on the IC50 value, which is the concentration of the specimen required to kill 50% of the parasites. The parasites were first seeded into 96-well plates at a density of 1x10^5 amastigotes/well in 200 μL medium. Then, 10 μL of the drug candidates at various concentrations were added and the final volume was adjusted to […] medium. The number of amastigotes in the wells treated with each specimen were compared to those in the untreated control wells.
as §2, §3

[3] = system: intracellular L.donovani amastigotes, wild-type AG83, in macrophages; experiment: Antileishmanial activity against intracellular amastigotes, wild-type AG83; type: cell-based; settings: for IC50: Leishmania donovani, Macrophage
Description: as §1, §2, §3

[4] = Cytotoxicity studies (CC50) on peritoneal macrophages; type: cell-based, BALB/c mice; settings: BALB/c, mouse, resident peritoneal macrophages, 48 h exposure, mean ± σ, n = 3
Description: (§4) Resident peritoneal macrophages were isolated from BALB/c mice. For the isolation, 1.5 mL of sterile thioglycolate medium was injected into the peritoneal cavity to induce non-infectious inflammation. Animals were sacrificed after 5 days, and peritoneal exudates were harvested by intraperitoneal lavage. Cold RPMI (6 mL) was injected into the peritoneal cavity. After 10 min, the injected fluid was withdrawn by the same syringe. From each animal, approximately 3-4 mL of medium was recovered. After centrifugation at 200 g for 15 min, macrophages were collected. […] The cytotoxicity of the drug specimen was evaluated by the CC50 value, which is the concentration required to kill 50% of the host cell population. Macrophages were first isolated from peritoneal lavage as described above. The cells were seeded into 96-well plates at 1x10^6 cells/mL in 200 μL of RPMI-1640 supplemented with 10% FCS, 20 mM L-glutamine, 16 mM NaHCO3, penicillin (50 U/mL) and streptomycin (50 μg/ mL) at 37°C in 5% CO2 for 4 h for adherence. To remove the non-adherent cells, each plate was washed two times with phosphate buffer saline (pH 7.2). […] Microscopic examinations were performed in duplicates with various concentrations of pure drugs or buparvaquone-loaded nanoparticles and also for control wells. The amastigotes cells were counted for all cases using a hemocytometer. The mean of the control wells was considered as 100% survival. The counts in the treated wells at various concentrations were converted into percentages. Giemsa-stained slides of the macrophages infected with amastigotes were observed under a light microscope. Then the numbers of amastigotes and infected macrophages per 100 cells were counted for each slide. The percentage (%) of inhibition was calculated by using the equation %[…]×100, (2) where C is the number of amastigotes/infected macrophages per 100 cells in the control well and T is the number of amastigotes/infected macrophages per 100 cells in the drug-treated well.

[5] = system: resident peritoneal macrophages; experiment: as above; type: cell-based, BALB/c mice; settings: 48 h exposure, mean ± σ, n = 3, read-out: CC50
Description: as §4

[6] = system: wild-type AG83 L. donovani amastigotes in spleen; experiment: Leishman-Donovan Unit (LDU) assay in infected mice; type: in vivo, BALB/c mice
Description: Spleen smears were stained with Giemsa to confirm infection. The infected animals were divided into three groups consisting 4-5 animals per group. The groups were classified as the infected control group, BPQ treated group and BPQ+NP treated group. […] The infected control group was injected an equal volume of PBS during the entire dosing period. […] After that spleen impression smears were prepared on glass slides and stained with Giemsa to analyze infected visceral organ (spleen) microscopically. The parasite burdens were determined by evaluating the LDU values, which were calculated by multiplying the number of amastigotes counted per 500 nuclei with the spleen weight in mg.

## CC(C)(C)[C@H]1CC[C@H](CC2=C(O)C(=O)c3ccccc3C2=O)CC1 [BPQ, Buparvaquone]
[1]; CC50/IC50, intracellular
  Selectivity index (SI), GE1: 90 ± 10
[1]; GE1
  Fold larger cellular IC50 of pure BPQ than BPQ+NP: 4 fold
[1]; Leishmania donovani, Macrophage, intracellular amastigotes, 72 h, mean ± σ, n = 4, read-out: Cellular IC50, GE1
  IC50: 3.8 ± 0.4 µM
[2]; GE1
  Fold higher axenic IC50 of pure BPQ than BPQ+NP: 4 fold
[2]; IC50 against drug resistant strain / IC50 against wild-type strain (AG83), axenic
  Resistance index (RI), GE1: 1.2 ± 1.4
[2]; Leishmania donovani, axenic amastigotes, mean ± σ, n = 4
  IC50: 4.1 ± 0.8 µM
[3]; AG83
  Fold larger cellular IC50 of pure BPQ than BPQ+NP: 3 fold
[3]; CC50/IC50, intracellular
  Selectivity index (SI), AG83: 120 ± 10
[3]; cellular model, range over all four L. donovani strains (Table 3), read-out: Cellular IC50, range over the strains
  IC50: 2 to 5 µM
[3]; intracellular amastigotes, 72 h, mean ± σ, n = 4, read-out: Cellular IC50, Wild-type AG83
  IC50: 2.9 ± 0.3 µM
[4]
  CC50 at 48 h: > 300 µM
[5]
  CC50: 330 ± 30 µM
[6]; 1 mg/kg i.p. for 5 consecutive days
  Fold reduction of amastigote burden in spleen compared with the control group: 20 fold
[6]; infected BALB/c mice, 1 mg/kg i.p. for 5 consecutive days, day 7 post-treatment, n = 5
  Spleen wt.: 100 ± 10 mg
[6]; spleen of infected mice, intraperitoneal, corresponding doses
  Suppression / inhibition of parasite burden in vivo (summary statement): 50%
[6]; spleen, 1 mg/kg i.p. for 5 consecutive days
  LDU (Leishman Donovan Unit = number of amastigotes per 500 nuclei × spleen weight in mg): 2 ± 1 × 10^4
[6]; spleen, 1 mg/kg i.p. for 5 consecutive days, day 7 post-treatment
  Amastigotes per 500 nuclei: 200 ± 20

— article PMC8274846, “Biogenic nanoporous silicon carrier improves the efficacy of buparvaquone against resistant visceral leishmaniasis” (PLoS Neglected Tropical Diseases, 2021)
